Patent publication US20050170481A1, “Novel (d)-2-hydroxy-acid oxidase derived from microorganism and biochemical process for producing glyoxylic acid therewith” (priority 2002, published 2005)

Legend:
[1] = system: (D)-2-hydroxy-acid oxidase (enzyme of the present invention); experiment: Oxidase reaction activity (H2O2 / 4-AA / TOOS / POD, absorbance at 555 nm), substrate specificity; type: biochemical, Arthrobacter sp. KNK-GA1 strain; conditions: for Relative activity (%): Table 2, 30° C., 100 seconds; for activity of the (D)-2-hydroxy-acid oxidase for the substrate (in words): summary of Table 1
Protocol: The reaction activity of oxidase is basically measured by adding 0.1 ml of an enzyme solution to 0.9 ml of a 100 mM phosphate buffer (pH 7) having the composition below, and measuring an increase in absorbance at a wavelength of 555 nm at 30° C. In the present invention, when 1 μmol of H2O2 is produced for 1 minute, the enzyme activity is defined as 1 unit.
The enzymatic properties of the enzyme produced in Example 6 were measured.
(§1) The enzyme activity was basically measured by reacting 1.0 ml of a reaction solution containing 10 mM of a substrate such as glycolic acid, 0.67 mM of 4-AA, 1.09 mM of TOOS, 2 U/ml of POD, and 0.1 ml of an enzyme solution in a 100 mM phosphate buffer or Tris buffer at 30° C. for 100 seconds, and then measuring an increase in absorbance at a wavelength of 555 nm.

[2] = target: T1, glycolate oxidase (produced by Sigma Corporation) derived from spinach (Spinacia oleracea, UniProt P05414); experiment: Substrate specificity of glycolate oxidase derived from spinach; type: biochemical
T1 construct: purchased Sigma Corporation
T1 sequence (P05414 1-369): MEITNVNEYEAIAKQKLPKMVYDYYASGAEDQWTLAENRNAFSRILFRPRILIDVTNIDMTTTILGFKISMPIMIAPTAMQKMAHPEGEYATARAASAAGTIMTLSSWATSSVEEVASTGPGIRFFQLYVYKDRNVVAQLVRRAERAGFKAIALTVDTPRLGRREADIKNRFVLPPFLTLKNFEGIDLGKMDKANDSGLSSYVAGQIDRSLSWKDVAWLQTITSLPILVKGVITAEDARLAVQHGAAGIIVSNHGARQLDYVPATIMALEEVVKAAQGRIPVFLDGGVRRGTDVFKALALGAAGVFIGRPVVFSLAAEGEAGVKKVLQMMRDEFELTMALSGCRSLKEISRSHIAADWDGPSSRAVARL
Protocol: In Table 1, the activity of each enzyme for glycolic acid is […] regarded as 100%.
as §1
The activity of glycolate oxidase (produced by Sigma Corporation) derived from spinach was examined for various 2-hydroxy acid compounds, and the results were compared with the results of the enzyme of the present invention produced in Example […].

glycolate oxidase [3] = conditions: Table 1; activity for glycolic acid regarded as 100%; J. Biochem., 16, 1373-1378, 1984; cited from earlier work
glycolate oxidase [4] = conditions: Table 1; activity for glycolic acid regarded as 100%; J. Phycol., 32, 790-798, 1996; cited from earlier work
[5] = system: lactic acid oxidase derived from soil gram-negative bacteria; conditions: Appl. Biochem. Biotechnol., 56, 277-288, 1996; cited from earlier work
[6] = Table 1, activity for glycolic acid regarded as 100%

Row | Compound | Relative activity (%) ([1]; Substrate 10 mM) | Relative activity (%), Enzyme of this invention [1, 6] [%] | Relative activity (%), Enzyme of this invention ([1]; Table 3, Substrate 10 mM) [%] | Relative activity (%), Spinach [2, 6] [%] | Relative activity (%), Spinach ([2]; Table 3, Substrate 10 mM) [%] | Relative Activity (%), Lemna minor (glycolate oxidase [3]) [%] | Relative Activity (%), Spatoglossum pacificum (glycolate oxidase [4]) [%] | activity of the (D)-2-hydroxy-acid oxidase for the substrate (in words) [1] | activity for L-lactic acid as rate of the activity for D-lactic acid [5] [%]
1 | 1-propanol | 0 |  |  |  |  |  |  |  | 
2 | CCC(O)C(=O)O (racemic) [DL-2-hydroxybutyric acid] | 42 | 42 | 42 | 71 | 71 | 57 | 55 |  | 
3 | CCCCC(O)C(=O)O (racemic) [DL-2-hydroxycaproic acid] | 7 | 7 | 7 | 29 | 29 | 13 |  |  | 
4 | CC(C)CC(O)C(=O)O (racemic) [DL-2-hydroxyisocaproic acid] | 10 | 10 | 10 | 51 | 51 |  |  | shows activity | 
5 | CCCC(O)C(=O)O (racemic) [DL-2-hydroxyvaleric acid] | 32 | 32 | 32 | 70 | 70 | 52 | 91 |  | 
6 | O=C(O)C(O)CO (racemic) [DL-glyceric acid] | 54 |  | 54 |  | 76 |  |  |  | 
7 | O=C(O)CC(O)C(=O)O (racemic) [DL-malic acid] | 0 |  |  |  |  |  |  |  | 
8 | CC(O)CO (stereo not shown) [1,2-propanediol] | 0 |  |  |  |  |  |  |  | 
9 | CC(C)O [2-propanol] | 0 |  |  |  |  |  |  |  | 
10 | C[C@@H](O)C(=O)O [D-lactic acid] | 82 | 82 | 82 | 0 | 0 | 7 | 0 | high activity | 
11 | CCO [Ethanol] | 0 |  |  |  |  |  |  |  | 
12 | OCCO [Ethylene glycol] | 0 |  |  |  |  |  |  |  | 
13 | OCC(O)CO [Glycerin] | 0 |  |  |  |  |  |  |  | 
14 | O=C(O)CO [Glycolic acid] | 100 | 100 | 100 | 100 | 100 | 100 | 100 | high activity | 
15 | O=CC(=O)O [Glyoxylic acid] |  | 4 |  | 8 |  | 35 | 14 | relatively low activity | 
16 | CC(C)C[C@H](O)C(=O)O [L-2-hydroxyisocaproic acid] | 0 | 0 | 0 | 68 | 68 | 30 | 77 | no activity | 
17 | C[C@H](O)C(=O)O [L-lactic acid] | 0 | 0 | 0 | 81 | 81 | 60 | 26 | no activity | 57
18 | CO [Methanol] | 0 |  |  |  |  |  |  |  | 
19 | O=C(O)CCO [β-hydroxypropionic acid] | 1 |  |  |  |  |  |  |  | 
